# Laboratory results taken from patent publication US9359341B2, “Aldehyde derivative of substitute oxazolidinones” (WANBURY LTD., priority 2012, dated 2016).
# Read-outs that look alike come from different tables or passages of the source.
# Legend:
# [1] = Anticoagulant activity (PT, APTT) in human plasma; conditions: PT and APTT, 0.1 to 1.0 μg/mL
# Protocol: The anticoagulant action of the test substance (compound formula-B) and rivaroxaban was determined in vitro using human plasma. The human plasma used for this experiment was separated from the blood collected in sodium citrate as anticoagulant. The prothrombin time (PT) was determined by using a commercial test kit (Neoplastin from Stagid) and APTT was determined using (Synthasil kit by IL). […] Coagulation was then started by addition of thromboplastin, and time when coagulation occurred was determined. The concentration of test substance which effected a doubling of prothrombin time was determined.
# [2] = In vitro liver microsomal stability assay (mouse); assay type: in vitro ADME; conditions: mouse liver microsomes
# Protocol: Liver microsomal stability assays are conducted at 1 mg per mL liver microsome protein with an NADPH in phosphate buffer (100 mM, pH 7.4). Test compounds (compound of formula B of the invention) are prepared as solutions in 20% methanol-water and added to the assay mixture (final assay concentration 1 μM) and incubated at 37° C. Aliquots (100.μ·L) are taken out at times 0, 15, and 30 minutes, and diluted with ice cold acetonitrile containing IS (200.mu·L) to stop the reactions. Samples are centrifuged at 10,000 RPM for 5 minutes to precipitate proteins. Supernatants are transferred to micro centrifuge tubes and stored at −20° C. for analysis of LC/MS/MS. The percent parent remaining of the test substance is calculated as Ratio of peak area at each time point to peak area ratio at zero min, multiplied by 100. The compound formula (B) is converted to Rivaroxaban in microsomal assay.
# [3] = system: plasma protein; assay: Plasma protein binding (human); assay type: in vitro ADME
# Protocol: A compound solution (1 mM in DMSO) (5 μL), according to the invention is added to the respective plasma matrices of rat or human or mouse (1 ml).
# Add 150 ul of phosphate buffer to receiving side of the dialysis well. […] Precipitate with Acetonitrile and dilute samples prior to analysis in 1.5 ml polypropylene tubes. Remove 50 μl from the sample side of dialysis well and add 50 μl of phosphate buffer +300 μl of acetonitrile containing IS. Remove 50 μl from the buffer side of the dialysis well and add 50 μl of respective matrix plasma +300 μl of ACN. Then vortexed and centrifuged for 5 min, and supernatant is taken and injected into LCMS.
# Different test concentration ranging from 0.1 μM to 20 μM are made in methanol:water (90:10). Test solutions are added to the premixed matrix containing plasma:phosphate buffer (50:50). Precipitate with 300 μl of ice cold acetonitrile containing IS, vortexes and centrifuged. Supernatant is taken and injected into LCMS. Percentage of plasma protein binding was obtained via Equation(2):% Fraction unbound=(concentration on the buffer side/concentration on the sample side)*100 Table-7
# [4] = Permeability in caco2 system; assay type: in vitro ADME; conditions: human, Caco-2, caco2 system
# [5] = system: caco2 system; assay: Permeability in caco2 system; assay type: in vitro ADME; conditions: caco2 system
# [6] = Stability in simulating gastric fluid (SGF); assay type: physicochemical
# Protocol: (§1) On completion of incubation period, the solution is centrifuged and supernatant is taken. To the supernatant, ice cold acetonitrile containing IS is added, vortexed and injected into LCMS/MS.
# (§2) API 4000, ESI Agilent 1100 column: Gemini Nx 100 mm×4.6 mm 5.μ; column temperature: 30° C.; eluent A: 0.1% formic acid in water, eluent B: acetonitrile; gradient: 0-2.5 min 95% A, 5% B; 2.5-2.6 min 5% A, 95% B; 2.6-4.2 min 95% A, 5% B; flow rate: 0.8 ml/min; ESI. Q1:464.098, Q3:144.255
# (§3) Prepared 0.1 mol of citric acid and 0.2 mol of di sodium hydrogen phosphate in water. Buffer pH 2.2, 4 and 7.8 are prepared using citric acid and disodium hydrogen phosphate by adjusting the pH with 0.1N HCl or 1N NaOHpH 7.4: 8.89 g disodium hydrogen phosphate (Solution A) add to 1 liter of water, 1.5601 g sodium di-hydrogen phosphate (solution B) are made up to 1 liter with water; Solution A (19 ml) and Solution B (81 ml) are mixed. SIF/SGF: 2.38 g of SIF original powder (biorelavant media) is dissolved in 1 L of milliQ water. The pH of the solution is adjusted for SIF (7.4) and SGF (2.2) with 0.1N HCl. The ratios of the peak areas (F) at the respective time points in relation to the peak areas at the starting time are calculated
# The peak area (F) is directly correlated to the amount of test compound which is quantified by the LC MS method.
# In simulating intestinal and gastric fluid, the area of the formula B compared with zero minute area to 120 min.
# [7] = In vitro stability in rat plasma; assay type: in vitro ADME; conditions: conversion to rivaroxaban seen from zero min
# Protocol: The final concentration of the test compound in the assay is 5 micromolar. […] C. The 100 microliters of aliquot at time point was removed and diluted with ice cold acetonitrile containing IS (200.mu·L) to stop the reactions. Samples are centrifuged at 10,000 RPM for 5 minutes to precipitate proteins. Supernatants are transferred to micro centrifuge tubes and stored at −20° C. for analysis of LC/MS/MS. The percent parent remaining of the test substance is calculated as ratio of peak area at each time point to peak area ratio at zero min, multiplied by 100.
# API 4000, ESI Agilent 1100 column: Gemini Nx 100 mm×4.6 mm 5.1; column temperature: 30° C.; eluent A: 0.1% formic acid in water, eluent B: acetonitrile; gradient: 0-2.5 min 95% A, 5% B; 2.5-2.6 min 5% A, 95% B; 2.6-4.2 min 95% A, 5% B; flow rate: 0.8 ml/min; ESI. Q1:464.098, Q3:144.255
# [8] = Stability in simulating intestinal fluid (SIF); assay type: physicochemical; conditions: over 120 min
# Protocol: as §1, §2, §3
# The peak area (F) is directly correlated to the amount of test compound which is quantified by the LC MS method. […]
compound,measurement,setting,value
"O=CN(C[C@H]1CN(c2ccc(N3CCOCC3=O)cc2)C(=O)O1)C(=O)c1ccc(Cl)s1 [Compound formula B, 5-chloro-N-formyl-N-({(5S)-2-oxo-3-[4-(3-oxomorpholin-4-yl)phenyl]-1,3-oxazolidin-5-yl}methyl)thiophene-2-carboxamide]",anticoagulant activity,[1],significant anticoagulant activity
same,Observation (metabolism; for Test Product: of the formed rivaroxaban),[2],shown metabolism
same,amount of test product detected,[2]; metabolised to rivaroxaban from zero min,min. Neglible
same,Observation: amount of test product,[3],Not quantificable amount
same,Observation: formed Rivaroxaban bound to plasma protein,[3],found to be High bound to
same,Papp,"[4]; read-out: Interpretation: permeability, classification based on Papp",> 20 ×10⁻⁶ cm/s
same,Papp,[4]; read-out: Papp A > B,17.4 ×10⁻⁶ cm/s
same,Papp,[4]; read-out: Papp B > A,40.3 ×10⁻⁶ cm/s
same,Interpretation: Pgp substrate (efflux of >2),[5],observed to be a Pgp substrate.
same,% Parent remaining,[6]; 30 min,99.27%
same,% Parent remaining,[6]; 60 min,101.17%
same,% Parent remaining,[6]; 120 min,100.05%
same,% Parent remaining,[6]; Zero min,100%
same,Conclusion (stability in SGF),[6]; up to 120 min,is stable
same,Conversion: amount of test product detected,[7],min. Neglible
same,stability at simulating intestinal conditions,[8],stable at simulating intestinal conditions
